Test results published in article PMC12396291, “DNA-encoded library screening uncovers potent DNMT2 inhibitors targeting a cryptic allosteric binding site” (iScience, 2025).
Entries after “also recorded” stand apart in the source; their conditions may differ. One block for each molecule: values may come before it.

Tests used:
DNMT2 [1] = target: T1, DNMT2 (Homo sapiens, UniProt O14717); experiment: ^3H-based methyltransferase enzyme activity assay (^3H-SAM incorporation into tRNA^Asp); type: biochemical
T1 construct: Recombinant human DNMT2 (full-length); His-tag; made in house; host or cells: E. coli
T1 sequence (O14717 1-391): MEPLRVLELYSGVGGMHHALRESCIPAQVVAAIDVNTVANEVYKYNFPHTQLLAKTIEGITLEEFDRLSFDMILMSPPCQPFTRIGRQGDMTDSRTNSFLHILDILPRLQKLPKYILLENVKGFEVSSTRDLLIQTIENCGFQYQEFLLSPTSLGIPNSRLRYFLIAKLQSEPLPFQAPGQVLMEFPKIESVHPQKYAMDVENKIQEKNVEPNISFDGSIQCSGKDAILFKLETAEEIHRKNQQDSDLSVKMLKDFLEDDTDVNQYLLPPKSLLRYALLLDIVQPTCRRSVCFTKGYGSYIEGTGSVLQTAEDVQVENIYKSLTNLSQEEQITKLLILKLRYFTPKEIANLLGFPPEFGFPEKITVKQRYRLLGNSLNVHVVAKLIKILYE
Protocol: Enzymatic DNMT2 inhibition assays were carried out in 100 mM Tris-HCl, pH 8.0, 100 mM NH4OAc, 0.1 mM EDTA, 10 mM MgCl2, and 10 mM DTT as described previously.[3]^,[4] First, the tRNA^Asp substrate was heated to 75 °C for 5 min and cooled down to room temperature (RT) before it was added to the reaction mixture to a final concentration of 5 μM. The reaction mixture contained 250 nM DNMT2 and the ligand compounds at variable concentrations (5% DMSO). Enzymatic reactions were started by the addition of 0.9 μM SAM as a mixture of ^3H-SAM (Hartmann Analytics) resp. cold SAM (NEB) to a final activity of 0.025 μCi μL^−1. Enzyme assays were carried out for 30 min at 37 °C. As a negative control served the reaction mixture without DNMT2 and as a positive control the reaction mixture without test compound. After 30 min, aliquots of 8 μL were taken from the reaction mixture and spotted on Whatman glass microfiber filters (GF/C, 25 mm). The RNA was precipitated on the filters with 5% ice-cold TCA for 15 min. […] Scintillation was measured with a scintillation counter (TriCarb Liquid Scintillation Analyzer 4810 TR; measurement time of 1 min). For IC50-value determination, compounds were analyzed at a minimum of six different concentrations in triplicates. IC50-values were calculated, evaluated, and plotted in GraphPad Prism 8.0.1.

DNMT2 [2] = target: T1, DNMT2; experiment: Isothermal titration calorimetry (ITC), direct titration; type: binding; details: direct titration at 25 °C; n.b. = no enthalpy signal observable
Protocol: The DNMT2 protein was purified via size exclusion chromatography eluting in isothermal titration calorimetry (ITC) buffer (50 mM sodium phosphate pH 8.0, 300 mM NaCl, 1 mM EDTA, 2 mM β-mercaptoethanol, 0.1% polysorbate-20) and directly used for measurements.[3] All compounds were dissolved in DMSO to a concentration of 5 mM and were then diluted in ITC buffer to a final concentration of 500 μM. DNMT2 was diluted to a final concentration of 50 μM with 10% DMSO to match the ligand stocks' DMSO concentration. For the ITC measurements, a MicroCal PEAQ-ITC Automated workstation (Malvern Panalytical) with a 200 μL Hastelloy cell and an injection syringe volume of 40 μL was used. All experiments were performed in triplicates at 25 °C unless otherwise noted. For each measurement, 19 compound injections (2 μL each) with an injection speed of 0.5 μL/s were added to the reaction cell containing DNMT2. The spacing time between sequential injections was 300 s, and the stirring speed was set to 750 rpm with a reference power of 42 μW. As control experiments, ligands were titrated into ITC buffer. Data analysis and fitting were carried out using the MicroCal PEAQ-ITC Analysis Software 1.21 and plotted in GraphPad Prism 8.0.1.

DNMT2 [3] = target: T1, DNMT2; experiment: MST displacement assay with fluorescent FTAD probe; type: binding; design: Fnorm (MST screening): unit not given here; details: for Fnorm (% displ.): FTAD displacement / Fnorm (MST screening): ligand 100 μM, FTAD probe
Protocol: Screening for ligand binding and evaluation of dose-response affinity profiles was performed via microscale thermophoresis (MST) as described previously.[42] The measurements were conducted with a Nanotemper Technologies Monolith NT.115 device. All samples were measured in Monolith standard capillaries at 25 °C. The acquisition mode was set to “Nano-Blue” with an excitation power of 30% and a medium MST power, while the system was controlled using the software MO.Control (version 1.6.1) and for evaluation MO.Affinity Analysis (version 2.3) was used. The samples contained 2 μM DNMT2, 100 nM FTAD (5-FAM-triazolyl-adenosyl-Dab) probe, and 1.3% DMSO in MST buffer (50 mM HEPES, 150 mM NaCl, 1 mM dithiothreitol (DTT), 0.1% PEG-8000, 0.05% polysorbate-20, pH 7.4).[42] All compounds were employed at a final concentration of 100 μM for the initial ligand screening.

NSUN6 = target: T2, NSUN6 (Homo sapiens, UniProt Q8TEA1); experiment: FP selectivity assay with probe 6; type: binding; details: enzyme concentrations up to 20 μM
T2 construct: made in house; host or cells: E. coli
T2 sequence (Q8TEA1 1-469): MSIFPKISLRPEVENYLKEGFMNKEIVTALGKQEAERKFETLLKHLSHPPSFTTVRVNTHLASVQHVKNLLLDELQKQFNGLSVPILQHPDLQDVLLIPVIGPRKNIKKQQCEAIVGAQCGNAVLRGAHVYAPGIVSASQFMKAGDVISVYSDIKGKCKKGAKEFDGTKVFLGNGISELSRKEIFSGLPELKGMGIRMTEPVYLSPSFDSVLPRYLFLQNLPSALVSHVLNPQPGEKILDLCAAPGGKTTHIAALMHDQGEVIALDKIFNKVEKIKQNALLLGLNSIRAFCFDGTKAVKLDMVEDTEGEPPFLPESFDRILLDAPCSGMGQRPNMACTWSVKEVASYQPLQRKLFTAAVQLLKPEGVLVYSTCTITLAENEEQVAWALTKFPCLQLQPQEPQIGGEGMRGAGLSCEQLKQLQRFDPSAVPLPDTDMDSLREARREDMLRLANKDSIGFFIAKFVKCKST
Protocol: (§1) Fluorescence polarization (FP) measurements with RNA MTases and small-molecule fluorescent tracers were conducted in black Greiner 96-well half-area plates using a Tecan Spark 10M plate reader as described previously.[44] The reader was equipped with polarization filters coupled to a monochromator setup (λex = 480 nm, λem = 530 nm). For selectivity screening, reaction mixtures contained varying concentrations of recombinant enzyme (DNMT1, DNMT2, DNMT3A/3L, NSUN2, NSUN3, or NSUN6; preparation see below) and 10 nM DEL hit-derived probe 6 in MST buffer. For displacement experiments, 100 μM SAH or 10 μM tRNA^Asp were added from buffered stock solutions to the DNMT2-containing mixtures. All measurements were performed as triplicates. Polarization values (in mP) were calculated from polarization-specific parallel and orthogonal fluorescence intensities according to the Tecan in-built calculation routine. KD-values were calculated and plotted in GraphPad Prism 8.0.1.

DNMT1 = target: T3, DNMT1 (Homo sapiens, UniProt P26358); experiment: FP selectivity assay with probe 6; type: binding; details: enzyme concentrations up to 20 μM
T3 construct: purchased ActiveMotif 31404
Protocol: as §1

NSUN2 = target: T4, NSUN2 (Homo sapiens, UniProt Q08J23); experiment: FP selectivity assay with probe 6; type: binding; details: enzyme concentrations up to 20 μM
T4 construct: made in house; host or cells: E. coli
Protocol: as §1

NSUN3 = target: T5, NSUN3 (Homo sapiens, UniProt Q9H649); experiment: FP selectivity assay with probe 6; type: binding; details: enzyme concentrations up to 20 μM
T5 construct: made in house
T5 sequence (Q9H649 1-340): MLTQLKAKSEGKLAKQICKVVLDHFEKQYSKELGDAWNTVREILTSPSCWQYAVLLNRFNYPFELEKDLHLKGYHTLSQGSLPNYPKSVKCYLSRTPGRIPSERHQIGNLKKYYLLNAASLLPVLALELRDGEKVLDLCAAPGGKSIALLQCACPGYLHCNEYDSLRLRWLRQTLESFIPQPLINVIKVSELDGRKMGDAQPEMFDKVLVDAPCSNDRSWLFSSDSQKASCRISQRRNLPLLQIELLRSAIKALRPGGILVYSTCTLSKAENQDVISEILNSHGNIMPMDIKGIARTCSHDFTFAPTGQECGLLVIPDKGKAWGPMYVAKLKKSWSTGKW
Protocol: as §1

DNMT2 [4] = target: T1, DNMT2; experiment: MST with DEL hit-derived fluorescent tracers 6-8, DNMT2 varied; details: probe 100 nM instead of FTAD, read-out: probe binding affinity (MST, apparent KD)
DNMT2 [5] = target: T1, DNMT2; experiment: Fluorescence polarization (FP) assay with probe 6; type: binding
Protocol: as §1

DNMT3A/3L = target: T6, DNMT3A/3L (UniProt Q9CWR8+Q9Y6K1); experiment: FP selectivity assay with probe 6; type: binding, human; details: enzyme concentrations up to 20 μM
T6 construct: made in house; host or cells: E. coli
Protocol: as §1

[6] = Parallel artificial membrane permeation assay (PAMPA); type: in vitro ADME; details: 7 h incubation, duplicates
Protocol: To determine the passive permeability of selected DNMT2 ligands, a parallel artificial membrane permeation assay (PAMPA) was performed as described previously.[68] The experiment was performed in duplicates with Sigma-Aldrich MAIPNTR10 donor plates with 5 μL of an artificial membrane (1% w/v L-α-phosphatidylcholine in n-dodecane) per well. After incubation for 7 h, the acceptor solutions were evaluated by LC/MS (HP Agilent 1100 Series). The peak areas in the UV chromatogram (λ = 210 nm) were used to calculate the areas under the curve (AUCs).

[7] = test system: tRNA modifications (m^5C) in MOLM-13 cells; experiment: LC-MS/MS tRNA modification analysis of treated cells; type: cell-based, human; details: 72 h; for m^5C reduction in tRNA: relative to DMSO
[8] = test system: MOLM-13, Huh-7 and MDA-MB-231 cells; experiment: Cell viability assay, pre-cultivation with compound then doxorubicin; type: cell-based, human; details: for susceptibility to subsequent doxorubicin treatment (synergy): compound 50 μM, then doxorubicin
Protocol: Cell viability assays were conducted with MOLM-13 cells, Huh-7, MDA-MB-231, HEK293, and HCT MTase mutant cell lines (WT, knock-down DNMT2, and knock-down NSUN2) to investigate the DNMT2 inhibiting compounds’ cellular effect. Cells were cultured according to standard protocols: MOLM-13 (RPMI, 10% FBS, 1x Penicillin/Streptomycin, 37 °C, 5% CO2), Huh-7/MDA-MB-231/HEK293 (DMEM, 10% FBS, 1x Penicillin/Streptomycin, 37 °C, 5% CO2) and HCT (McCoys’s 5A Medium, 10% FBS, L-Glutamine, 1x Penicillin/Streptomycin, 37 °C, 5% CO2). Cell viability was assessed using Promega Cell Titer Glo assay kit (MOLM-13, Huh-7, MDA-MB-231, HEK293) or Lonza ViaLight Plus Cell Proliferation and Cytotoxicity BioAssay Kit (HCT cell lines). […] Then, the cell titer reagent was added to each well according to the manufacturer’s protocols, and luminescence was measured using a Tecan Spark 10M plate reader (MOLM-13, Huh-7, MDA-MB-231, HEK293) or Molecular Devices FlexStation (HCT cell lines).

T4 sequence (Q08J23 whole entry): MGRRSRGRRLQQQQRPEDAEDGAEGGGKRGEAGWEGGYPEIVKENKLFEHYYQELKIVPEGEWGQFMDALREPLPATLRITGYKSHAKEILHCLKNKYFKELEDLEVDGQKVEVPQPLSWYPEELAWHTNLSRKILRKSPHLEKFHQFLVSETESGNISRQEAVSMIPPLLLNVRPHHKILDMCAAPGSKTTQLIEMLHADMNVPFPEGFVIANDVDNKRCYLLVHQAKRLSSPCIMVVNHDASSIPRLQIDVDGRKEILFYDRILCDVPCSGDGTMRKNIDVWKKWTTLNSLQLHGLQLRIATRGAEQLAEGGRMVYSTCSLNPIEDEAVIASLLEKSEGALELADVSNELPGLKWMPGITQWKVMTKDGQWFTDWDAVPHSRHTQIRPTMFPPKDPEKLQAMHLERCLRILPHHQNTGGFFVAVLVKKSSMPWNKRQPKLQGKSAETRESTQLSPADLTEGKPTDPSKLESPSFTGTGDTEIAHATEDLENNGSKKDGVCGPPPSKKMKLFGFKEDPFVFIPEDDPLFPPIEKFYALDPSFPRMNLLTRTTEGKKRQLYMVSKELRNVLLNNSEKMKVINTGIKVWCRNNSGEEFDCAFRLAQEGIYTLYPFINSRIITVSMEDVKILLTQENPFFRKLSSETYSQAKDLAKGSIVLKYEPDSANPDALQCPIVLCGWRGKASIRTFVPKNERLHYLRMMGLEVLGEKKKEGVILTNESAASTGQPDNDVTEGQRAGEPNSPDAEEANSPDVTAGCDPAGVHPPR
T3 sequence (P26358 whole entry): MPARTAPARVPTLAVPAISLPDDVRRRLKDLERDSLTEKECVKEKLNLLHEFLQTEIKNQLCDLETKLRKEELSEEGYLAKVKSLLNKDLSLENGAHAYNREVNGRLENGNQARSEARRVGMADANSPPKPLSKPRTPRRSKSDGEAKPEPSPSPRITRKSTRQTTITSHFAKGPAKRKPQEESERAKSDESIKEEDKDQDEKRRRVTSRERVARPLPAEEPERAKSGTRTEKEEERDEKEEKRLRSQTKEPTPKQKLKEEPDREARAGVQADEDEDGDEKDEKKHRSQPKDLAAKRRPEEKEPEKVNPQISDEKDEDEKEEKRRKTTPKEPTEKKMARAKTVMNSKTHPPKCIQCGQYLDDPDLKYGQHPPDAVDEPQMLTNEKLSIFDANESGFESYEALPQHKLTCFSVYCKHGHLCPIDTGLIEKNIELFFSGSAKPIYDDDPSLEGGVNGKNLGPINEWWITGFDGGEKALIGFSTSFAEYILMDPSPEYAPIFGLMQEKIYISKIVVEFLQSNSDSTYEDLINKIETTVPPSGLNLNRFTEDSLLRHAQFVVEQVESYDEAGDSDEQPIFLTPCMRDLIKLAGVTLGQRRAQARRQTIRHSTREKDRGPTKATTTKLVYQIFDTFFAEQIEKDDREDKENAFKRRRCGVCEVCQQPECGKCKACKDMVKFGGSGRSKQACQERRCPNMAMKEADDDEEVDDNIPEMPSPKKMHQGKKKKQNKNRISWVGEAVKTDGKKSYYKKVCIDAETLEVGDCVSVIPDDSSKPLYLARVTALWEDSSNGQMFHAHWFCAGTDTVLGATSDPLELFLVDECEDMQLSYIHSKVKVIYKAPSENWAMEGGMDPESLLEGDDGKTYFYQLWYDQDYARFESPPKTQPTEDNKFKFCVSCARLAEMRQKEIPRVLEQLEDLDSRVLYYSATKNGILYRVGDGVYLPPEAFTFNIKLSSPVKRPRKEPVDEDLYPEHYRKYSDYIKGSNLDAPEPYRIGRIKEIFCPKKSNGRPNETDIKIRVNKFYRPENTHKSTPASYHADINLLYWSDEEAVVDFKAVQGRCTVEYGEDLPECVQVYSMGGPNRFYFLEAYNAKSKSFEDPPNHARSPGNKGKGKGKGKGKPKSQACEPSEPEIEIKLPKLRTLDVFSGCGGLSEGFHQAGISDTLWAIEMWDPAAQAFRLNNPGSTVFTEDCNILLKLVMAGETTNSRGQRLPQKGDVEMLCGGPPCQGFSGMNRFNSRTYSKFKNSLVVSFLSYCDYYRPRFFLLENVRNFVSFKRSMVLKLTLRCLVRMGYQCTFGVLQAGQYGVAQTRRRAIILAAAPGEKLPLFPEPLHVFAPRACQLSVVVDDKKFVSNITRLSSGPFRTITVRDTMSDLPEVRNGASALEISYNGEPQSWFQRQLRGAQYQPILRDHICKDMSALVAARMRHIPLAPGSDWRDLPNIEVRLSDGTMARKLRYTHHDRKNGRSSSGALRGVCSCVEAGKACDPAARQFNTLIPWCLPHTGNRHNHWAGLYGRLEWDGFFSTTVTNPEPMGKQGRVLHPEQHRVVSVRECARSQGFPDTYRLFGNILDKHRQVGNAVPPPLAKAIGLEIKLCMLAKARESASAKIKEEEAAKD

ITC (KD) (DNMT2 [2]): n.b.
Fnorm (% displ.): FTAD displacement (DNMT2 [3]): 5%
Fnorm (MST screening) (DNMT2 [3]): 861.5
Compound: CCc1ccc(C(=O)NCC2(C(=O)N[C@H](Cc3c[nH]c4ccccc34)C(=O)NCC(N)=O)CC2)cc1 [Compound 30]

Fnorm (% displ.): FTAD displacement (DNMT2 [3]): 13%
Fnorm (MST screening) (DNMT2 [3]): 879.4
Compound: CCc1ccc(C(=O)NCC2(C(=O)NC(CC(=O)NCC(N)=O)Cc3ccc(C#N)cc3)CC2)cc1 (stereo not shown) [Compound 34]
m^5C reduction in tRNA ([7]; MOLM-13, 50 μM): no reduction of m^5C in tRNA
susceptibility to subsequent doxorubicin treatment (synergy) [8]: did not lead to a synergistic reduction in viability

Fnorm (% displ.): FTAD displacement (DNMT2 [3]): 36%
Fnorm (MST screening) (DNMT2 [3]): 901.0
Compound: CCc1ccc(C(=O)NCC2(C(=O)N[C@@H](CC(=O)NCC(=O)N(C)C)Cc3ccccc3)CC2)cc1 [Compound 47]
Papp (PAMPA) [6]: failed to pass through the artificial membrane; also recorded: below detection limit

displacement of probe 6 from DNMT2 (FP) (DNMT2 [5]; SAH 100 μM or tRNA^Asp 10 μM added to DNMT2 2 μM): able to displace probe 6
Compound: Nc1ncnc2c1ncn2[C@@H]1O[C@H](CSCC[C@H](N)C(=O)O)[C@@H](O)[C@H]1O [SAH, S-adenosylhomocysteine, reference compound]

The next lines start with the molecule.

Compound: CNC(=O)C(NC(=O)C(Cc1c[nH]c2cc(Cl)ccc12)NC(=O)C(CO)NCC(C)Cc1ccc2c(c1)OCO2)C1CCCCC1 (stereo not shown) [Compound 4]
IC50 (DNMT2 [1]): 44400 ± 12900 nM
ITC (KD) (DNMT2 [2]): n.b.
FTAD displacement in the MST assay (DNMT2 [3]; DEL hits, result in words): did not lead to FTAD displacement
Kd (DNMT2 [3]; FTAD probe 100 nM, 2 μM DNMT2, n.b. = no thermophoresis shift observable): 105000 ± 9000 nM

Compound: CCc1ccc(C(=O)NCC2(C(=O)N[C@H](CC(=O)NCC(=O)NCCCCCCNC(=O)c3ccc(-c4c5ccc(=N)c(S(=O)(=O)O)c-5oc5c(S(=O)(=O)O)c(N)ccc45)c(C(=O)O)c3)Cc3ccccc3)CC2)cc1 [Compound 6]
probe binding to NSUN6 (FP) (NSUN6): does not bind
probe binding to DNMT1 (FP) (DNMT1): does not bind
probe binding to NSUN2 (FP) (NSUN2): does not bind
probe binding to NSUN3 (FP) (NSUN3): does not bind
Kd (DNMT2 [4]): 1650 nM
fluorescence polarization of probe-DNMT2 complex (DNMT2 [5]; probe 6 with DNMT2 (enzyme-free buffer 5 mP)): 220 mP
probe binding to DNMT3A/3L (FP) (DNMT3A/3L): does not bind

Compound: Cc1cccc(N(C)c2nc(N[C@H](C(=O)NCCCCCCNC(=O)CCCCC[N+]3=C(/C=C/C=C/C=C4/N(C)c5ccccc5C4(C)C)C(C)(C)c4ccccc43)[C@@H](C)OC(C)(C)C)nc(N3CCN(c4c(C)cccc4C)CC3)n2)c1 [Compound 7]
Kd (DNMT2 [4]): 1360 nM

Compound: CCc1ccc(C(=O)NCC2(C(=O)N[C@H](CC(=O)NCC(=O)NCCCCCCNC(=O)c3ccc(-c4c5ccc(=[N+](C)C)cc-5oc5cc(N(C)C)ccc45)c(C(=O)O)c3)Cc3c[nH]c4ccccc34)CC2)cc1 [Compound 8]
Kd (DNMT2 [4]): 700 nM

Compound: CCc1ccc(C(=O)NCC2(C(=O)N[C@@H](CC(=O)NCC(N)=O)Cc3c[nH]c4ccccc34)CC2)cc1 [Compound 10]
Papp (PAMPA) [6]: failed to pass through the artificial membrane; also recorded: below detection limit
Fnorm (% displ.): FTAD displacement (DNMT2 [3]): 40%
Fnorm (MST screening) (DNMT2 [3]): 903.3

Compound: CCc1ccc(C(=O)NCC2(C(=O)NC(CC(=O)NCC(N)=O)Cc3ccc(Cl)cc3)CC2)cc1 (stereo not shown) [Compound 16]
change in RNA modifications ([7]; MOLM-13, 5 μM): too low to stimulate any significant change in RNA modifications
changes of other (non-m^5C) tRNA modifications ([7]; MOLM-13, 50 μM): only minor other modification changes were observed
m^5C reduction in tRNA ([7]; MOLM-13, 50 μM): ~25%
Papp (PAMPA) [6]: ~ 0.30 10^−6 cm/s
Papp at 7 h ([6]; PAMPA): 0.3 ×10⁻⁶ cm/s
cellular viability after cultivation with compound alone ([8]; 50 μM, two passages of three days each): no observable reduction in cellular viability
susceptibility to subsequent doxorubicin treatment (synergy) [8]: made the cells more susceptible to the subsequent treatment with doxorubicin
